Experimental data as given in PMC3597687 (Nucleic Acids Research, 2013).

Target: T1, LysMSs (S. solfataricus LysM) (Saccharolobus solfataricus, UniProt Q980W9)
T1 sequence (Q980W9 1-142): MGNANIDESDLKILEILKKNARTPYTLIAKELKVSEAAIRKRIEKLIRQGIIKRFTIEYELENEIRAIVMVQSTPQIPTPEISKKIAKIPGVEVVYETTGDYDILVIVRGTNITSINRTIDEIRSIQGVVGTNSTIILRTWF
Experiment: EMSA, effect on LysM binding to […]-labelled gltB operator DNA
Details: gltB control region 167-bp fragment; effector 5 mM; 250 nM LysM

| Structure (SMILES) | EMSA, effect on LysM binding to 32P-labelled gltB operator DNA |
| --- | --- |
| NC(=O)CC[C@H](N)C(=O)O [L-glutamine] | arginine, glutamine, isoleucine, leucine, methionine and valine also specifically reduce LysM binding |
| CC[C@H](C)[C@H](N)C(=O)O [L-isoleucine] | arginine, glutamine, isoleucine, leucine, methionine and valine also specifically reduce LysM binding |
| CC(C)C[C@H](N)C(=O)O [L-leucine] | arginine, glutamine, isoleucine, leucine, methionine and valine also specifically reduce LysM binding |
| CSCC[C@H](N)C(=O)O [L-methionine] | arginine, glutamine, isoleucine, leucine, methionine and valine also specifically reduce LysM binding |
| CC(C)[C@H](N)C(=O)O [L-valine] | arginine, glutamine, isoleucine, leucine, methionine and valine also specifically reduce LysM binding |

Same assay, conditions: gltB control region 167-bp fragment; weak effector, mM range

| Structure (SMILES) | EMSA, effect on LysM binding to 32P-labelled gltB operator DNA |
| --- | --- |
| N=C(N)NOCC[C@H](N)C(=O)O [L-canavanine] | The effect of L-canavanine and L-citrulline was less pronounced |
| NC(=O)NCCC[C@H](N)C(=O)O [L-citrulline] | The effect of L-canavanine and L-citrulline was less pronounced |
